The results in this text go back to patent US12421209B2, “Compounds” (Hoffmann-La Roche Inc., priority 2021, dated 2025).

What all share (type): cell-based
For experiment [1], the target named is T1, hERG channels (Homo sapiens, UniProt Q12809).
T1 construct: Evotec (cryopreserved) ATCC PTA-6812; host or cells: CHO (Chinese hamster ovary) cells
The experiment is described as follows: hERG screening assay (automated patch clamp, CHO crelox hERG cell line). Particulars: CHO-hERG cells, whole-cell patch clamp at 35-37° C. The source says: The CHO crelox hERG cell line (ATCC reference Nr. PTA-6812, female Chinese hamster cells) was generated and validated at Roche. Ready-to-use frozen instant CHO-hERG cells were cryopreserved at Evotec (Germany) and used directly in the experiments.
The extracellular solution contains (in mM): NaCl 150; KCl 4; CaCl2) 1; MgCl2 1; HEPES 10; pH 7.2-7.4 with NaOH, osmolarity 290-330 mOsm. The internal solution contains (in mM): KCl, 10; KF, 100; NaCl, 10; HEPES, 10; EGTA, 20; pH=7.0-7.4 with KOH, osmolarity 260-300 mOsm.
The effects of a compound on hERG K+-currents parameters will be evaluated at 2 concentrations in at least 4 cells.
The hERG test is performed using automated patch clamp system SynchroPatch® 384 (Nanion Technologies GmbH, Germany). K+ currents are measured with the patch-voltage-clamp technique in the whole-cell configuration at 35-37° C.
Cells were held at a resting voltage of −80 mV and they were stimulated by a voltage pattern shown in FIG. 1 to activate hERG channels and conduct outward IKhERG current, at a stimulation frequency of 0.1 Hz (6 bpm)
The amplitudes of IKhERG were recorded in each concentration of drug and they were compared to the vehicle control values (taken as 100%) to define fractional blocks. The concentration-response data were fitted with the following relationship: […]
A general note: Block of hERG is tested as a sign of cardiac risk.

For experiment [2], the target named is T2, NLRP3 (Homo sapiens, UniProt Q96P20). The experiment is described as follows: THP-1 cells pyroptosis assay (LPS priming, nigericin, resazurin read-out). Set-up: Seed THP-1 cells (25,000 cells/well) containing 1.0 μg/ml LPS; host or cells: THP-1 cells. Particulars: 1.0 μg/ml LPS, 5 μM nigericin. The protocol: THP-1 cells (ATCC #TIB-202) were grown in RPMI containing L-glutamine (Gibco #11835) supplemented with 1 mM sodium pyruvate (Sigma #S8636) and penicillin (100 units/ml)/streptomycin (0.1 mg/ml) (Sigma #P4333) in 10% Fetal Bovine Serum (FBS) (Sigma #F0804). The cells were routinely passaged and grown to confluency (˜10^6 cells/ml). On the day of the experiment, THP-1 cells were harvested and resuspended into RPMI medium (without FBS). The cells were then counted and viability (>90%) checked by Trypan blue (Sigma #T8154). Appropriate dilutions were made to give a concentration of 625,000 cells/ml. To this diluted cell solution was added LPS (Sigma #L4524) to give a lug/ml Final Assay Concentration (FAC). 40 μl of the final preparation was aliquoted into each well of a 96-well plate. The plate thus prepared was used for compound screening.
T2 sequence (Q96P20 whole entry): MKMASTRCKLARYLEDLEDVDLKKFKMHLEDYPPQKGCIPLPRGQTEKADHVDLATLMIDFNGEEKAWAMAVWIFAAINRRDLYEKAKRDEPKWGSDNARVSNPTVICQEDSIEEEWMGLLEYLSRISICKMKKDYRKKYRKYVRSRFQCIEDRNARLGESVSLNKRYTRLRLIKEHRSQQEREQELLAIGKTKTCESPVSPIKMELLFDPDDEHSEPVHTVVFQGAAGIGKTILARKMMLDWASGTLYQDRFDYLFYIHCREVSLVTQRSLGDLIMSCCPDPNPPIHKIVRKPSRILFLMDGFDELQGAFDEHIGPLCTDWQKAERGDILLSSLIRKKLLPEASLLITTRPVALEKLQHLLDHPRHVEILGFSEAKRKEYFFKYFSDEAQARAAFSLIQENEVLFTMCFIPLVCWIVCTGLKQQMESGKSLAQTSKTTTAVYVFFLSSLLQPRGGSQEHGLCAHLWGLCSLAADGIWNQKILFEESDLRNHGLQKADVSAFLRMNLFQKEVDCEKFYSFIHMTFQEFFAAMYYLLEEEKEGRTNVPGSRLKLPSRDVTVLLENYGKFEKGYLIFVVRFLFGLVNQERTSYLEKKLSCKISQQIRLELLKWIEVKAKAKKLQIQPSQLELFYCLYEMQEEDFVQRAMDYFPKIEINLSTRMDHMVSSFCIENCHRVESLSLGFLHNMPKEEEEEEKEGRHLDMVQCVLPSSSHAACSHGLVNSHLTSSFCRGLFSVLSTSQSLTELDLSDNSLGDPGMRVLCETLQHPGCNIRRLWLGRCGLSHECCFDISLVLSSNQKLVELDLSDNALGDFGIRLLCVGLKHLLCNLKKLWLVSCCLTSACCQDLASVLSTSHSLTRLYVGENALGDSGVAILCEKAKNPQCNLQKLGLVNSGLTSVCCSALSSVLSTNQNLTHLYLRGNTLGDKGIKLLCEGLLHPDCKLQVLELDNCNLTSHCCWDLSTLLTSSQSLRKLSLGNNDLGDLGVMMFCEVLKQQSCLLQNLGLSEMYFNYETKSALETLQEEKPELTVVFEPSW
The following method step-by-step assay was followed for compound screening. • 1. Seed THP-1 cells (25,000 cells/well) containing 1.0 μg/ml LPS in 40 μl of RPMI medium (without FBS) in 96-well, black walled, clear bottom cell culture plates coated with poly-D-lysine (VWR #734-0317) • 2. Add 5 μl compound (8 points half-log dilution, with 10 μM top dose) or vehicle (DMSO 0.1% FAC) to the appropriate wells • 3. Incubate for 3 hours at 37° C., 5% CO2 • 4. Add 5 μl nigericin (Sigma #N7143) (FAC 5 μM) to all wells • 5. Incubate for 1 hr at 37° C., 5% CO2 • 6. At the end of the incubation period, spin plates at 300×g for 3 mins and remove supernatant • 7. Then add 50 μl of resazurin (Sigma #R7017) (FAC 100 μM resazurin in RPMI medium without FBS) and incubate plates for a further 1-2 hours at 37° C. and 5% CO2 • 8. Plates were read in an Envision reader at Ex 560 nm and Em 590 nm • 9. IC50 data is fitted to a non-linear regression equation (log inhibitor vs response-variable slope 4-parameters)
For orientation: Alamar Blue is a resazurin reagent that responds to reducing activity.

For experiment [3], the target named is T2, NLRP3. The experiment is described as follows: Human whole blood IL-1β release assay (LPS, nigericin, AlphaLisa). Set-up: Human whole blood in Li-heparin tubes was obtained from healthy donors; from tissue; host or cells: human whole blood from healthy donors. Particulars: 10 μM nigericin. Here is the method: For systemic delivery, the ability to inhibit NLRP3 when the compounds are present within the bloodstream is of great importance. For this reason, the NLRP3 inhibitory activity of a number of compounds in human whole blood was investigated in accordance with the following protocol.
Human whole blood in Li-heparin tubes was obtained from healthy donors from a volunteer donor panel. • 1. Plate out 80 μl of whole blood containing lug/ml of LPS in 96-well, clear bottom cell culture plate (Corning #3585) • 2. Add 10 μl compound (8 points half-log dilution with 10 μM top dose) or vehicle (DMSO 0.1% FAC) to the appropriate wells • 3. Incubate for 3 hours at 37° C., 5% CO2 • 4. Add 10 μl nigericin (Sigma #N7143) (10 μM FAC) to all wells • 5. Incubate for 1 hr at 37° C., 5% CO2 • 6. At the end of the incubation period, spin plates at 300×g for 5 mins to pellet cells and remove 20 μl of supernatant and add to 96-well v-bottom plates for IL-1β analysis (note: these plates containing the supernatants can be stored at −80° C. to be analysed at a later date) • 7. IL-1β was measured according to the manufacturer protocol (Perkin Elmer-AlphaLisa IL-1 Kit AL220F-5000) • 8. IC50 data is fitted to a non-linear regression equation (log inhibitor vs response-variable slope 4-parameters)
For orientation: Bead proximity is the source of the signal in Alpha formats.

Molecules are shown by their SMILES.

T1 sequence (Q12809 whole entry): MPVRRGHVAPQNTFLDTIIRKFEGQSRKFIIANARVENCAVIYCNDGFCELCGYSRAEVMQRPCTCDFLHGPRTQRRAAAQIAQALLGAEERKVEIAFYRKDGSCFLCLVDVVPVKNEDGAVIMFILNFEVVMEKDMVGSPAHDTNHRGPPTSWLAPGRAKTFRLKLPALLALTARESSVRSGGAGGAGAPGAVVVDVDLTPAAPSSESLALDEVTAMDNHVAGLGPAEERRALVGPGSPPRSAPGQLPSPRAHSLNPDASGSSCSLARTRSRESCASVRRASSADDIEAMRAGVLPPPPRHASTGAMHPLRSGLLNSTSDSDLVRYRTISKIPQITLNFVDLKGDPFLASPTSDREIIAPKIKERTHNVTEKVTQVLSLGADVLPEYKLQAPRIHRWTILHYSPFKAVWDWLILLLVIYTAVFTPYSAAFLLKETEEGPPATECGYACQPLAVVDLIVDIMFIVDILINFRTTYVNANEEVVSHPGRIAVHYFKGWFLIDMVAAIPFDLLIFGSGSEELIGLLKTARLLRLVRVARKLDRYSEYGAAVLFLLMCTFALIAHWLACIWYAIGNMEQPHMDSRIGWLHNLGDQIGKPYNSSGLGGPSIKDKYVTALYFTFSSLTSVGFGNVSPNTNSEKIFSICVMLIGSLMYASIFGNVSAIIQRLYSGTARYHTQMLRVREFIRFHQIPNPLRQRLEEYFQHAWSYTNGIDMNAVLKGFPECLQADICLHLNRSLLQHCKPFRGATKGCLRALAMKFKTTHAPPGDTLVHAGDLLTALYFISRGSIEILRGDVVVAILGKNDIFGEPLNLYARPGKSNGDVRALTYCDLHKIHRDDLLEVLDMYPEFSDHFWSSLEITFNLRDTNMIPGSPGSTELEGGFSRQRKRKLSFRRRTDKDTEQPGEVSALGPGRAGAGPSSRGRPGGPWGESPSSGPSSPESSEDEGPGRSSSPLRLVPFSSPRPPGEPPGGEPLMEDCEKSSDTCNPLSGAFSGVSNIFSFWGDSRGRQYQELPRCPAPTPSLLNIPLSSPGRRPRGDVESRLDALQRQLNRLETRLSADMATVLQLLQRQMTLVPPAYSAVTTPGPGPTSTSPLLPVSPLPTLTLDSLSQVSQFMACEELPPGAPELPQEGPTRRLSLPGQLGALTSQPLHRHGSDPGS

With `CCN1CCC[C@@H](Nc2nnc(-c3ccc(C(F)(F)F)cc3O)c(C)n2)C1` [Example 4, 2-[3-[[(3R)-1-Ethyl-3-piperidyl]amino]-5-methyl-1,2,4-triazin-6-yl]-5-(trifluoromethyl) phenol], the IC50 (usually the concentration that inhibits the measured activity by half) is above 10 µM in experiment [1], 1.7 nM in experiment [2] and 5.4 nM in experiment [3].
Take `CCN1CCC[C@@H](Nc2nnc(-c3ccc4c(c3O)CCO4)c(C)n2)C1` [Example 7, 5-[3-[[(3R)-1-Ethyl-3-piperidyl]amino]-5-methyl-1,2,4-triazin-6-yl]-2,3-dihydrobenzofuran-4-ol]: the figures for the IC50 in experiment [1], in experiment [2] and in experiment [3] were above 20 µM, 1.1 nM and 3.7 nM, respectively.
With `Cc1nc(N[C@@H]2CCCN(C)C2)nnc1-c1ccc(C(F)(F)F)cc1O` [Example 18, 2-[5-Methyl-3-[[(3R)-1-methyl-3-piperidyl]amino]-1,2,4-triazin-6-yl]-5-(trifluoromethyl) phenol], the concentration for half-maximal inhibition (IC50) in experiment [2] came out at 1 nM; in experiment [3], 20.2 nM.
Take `Cc1nc(N[C@@H]2CCCC[C@H]2O)nnc1-c1ccc(C(F)(F)F)cc1O` [Example 19, 2-[3-[[(1R,2R)-2-Hydroxycyclohexyl]amino]-5-methyl-1,2,4-triazin-6-yl]-5-(trifluoromethyl) phenol]: the IC50 in experiment [2] was 32.2 nM; in experiment [3] it was 228 nM.
Consider `CCN1CCC[C@@H](Nc2nnc(-c3c(C)cc(C(F)(F)F)cc3O)c(C)n2)C1` [Example 21, 2-[3-[[(3R)-1-Ethyl-3-piperidyl]amino]-5-methyl-1,2,4-triazin-6-yl]-3-methyl-5-(trifluoromethyl) phenol], for which the IC50 worked out at 1.6 nM in experiment [2] and 57.6 nM in experiment [3].
Consider `CCN1CCC[C@@H](Nc2nnc(-c3ccc(OC(F)(F)F)cc3O)c(C)n2)C1` [Example 22, 2-[3-[[(3R)-1-Ethyl-3-piperidyl]amino]-5-methyl-1,2,4-triazin-6-yl]-5-(trifluoromethoxy) phenol], for which the IC50 was found to be 1.2 nM in experiment [2] and 10.2 nM in experiment [3].
For `CCN1C[C@@H](O)C[C@@H](Nc2nnc(-c3ccc(C(F)(F)F)cc3O)c(C)n2)C1` [Example 23, (3S,5R)-1-Ethyl-5-[[6-[2-hydroxy-4-(trifluoromethyl)phenyl]-5-methyl-1,2,4-triazin-3-yl]amino]piperidin-3-ol] the same measures were 40.1 nM and 40.5 nM.
On to `CCN1C[C@@H](O)C[C@@H](Nc2nnc(-c3c(C)cc(C(F)(F)F)cc3O)c(C)n2)C1` [Example 24, (3S,5R)-1-Ethyl-5-[[6-[2-hydroxy-6-methyl-4-(trifluoromethyl)phenyl]-5-methyl-1,2,4-triazin-3-yl]amino]piperidin-3-ol], for which the values for the 50% inhibitory concentration (IC50) in experiment [2] and in experiment [3] were 49.6 nM and 125 nM, respectively.
With `CCN1CCC[C@@H](Nc2nnc(-c3ccc4c(c3O)CCC4)c(C)n2)C1` [Example 25, 5-[3-[[(3R)-1-Ethyl-3-piperidyl]amino]-5-methyl-1,2,4-triazin-6-yl]indan-4-ol], the half-inhibitory concentration (IC50) in experiment [2] came out at 0.7 nM; in experiment [3] it was 6.3 nM.
